{"source": "patent US9549902B2", "about": "“Transdermal patch” (BOUTY S.P.A., priority 2005, dated 2017)", "key": {"[1]": {"assay": "In vitro nitroglycerin permeation across human skin (SCE membranes) in Franz diffusion cells", "assay_type": "in vitro ADME", "experimental": "(§1) With the purpose of analysing the effect of sorbitan monooleate on nitroglycerin permeation kinetics, permeation of nitroglycerin from transdermal patches containing different concentrations of sorbitan monooleate was measured across mouse skin and human skin in Franz diffusion cells (produced by Hanson-Research).\n(§2) The test was undertaken as described in the Italian Official Pharmacopoeia XI ed. and the European Pharmacopoeia 4th ed.\nSamples of abdominal skin were obtained from the same donor by means of a surgical procedure.\nMembranes consisting of the stratum corneum and epidermis (SCE membranes) were prepared by immersing the skin into distilled water at 60° C.±1° C. for one minute followed by their removal from the dermis. The membranes were dried in a dryer at about 25% ambient humidity, wrapped in aluminium sheets and maintained at a temperature of about −20° C.±1° C. until required. Dried membrane samples were rehydrated at ambient temperature by immersing in a saline solution for 16 hours. […]\nThe results obtained were analysed statistically using the t-test for independent samples.\nThe steady-state flux was then determined for each patch by linear regression of the cumulative quantity of drug permeated across the skin (μg/cm^2) as a function of time (h). […]"}, "[2]": {"assay": "In vitro nitroglycerin permeation across mouse skin in Franz diffusion cells", "assay_type": "in vitro ADME", "experimental": "as §1, §2\nThe permeation studies were conducted using Franz diffusion cells modified with an aperture 15 mm in diameter (membrane surface area 1.766 cm^2) and 7 ml cell volume. A phosphate buffer at pH 7 maintained under constant agitation was used as receptor fluid within the cell. […]\nWithin an hour of removal from the animal the skin samples were placed over the aperture of the cells to form a membrane and the transdermal patches to be analysed were each placed over a membrane and fastened with clips.\nAt determined intervals 300 μl of receptor solution were withdrawn and replaced each time with an equivalent volume of phosphate buffer.\nThe quantity of nitroglycerin in each sample was determined by means of HPLC analysis, using a 50:50 methanol/water mixture as mobile phase.\nThe results obtained for each patch were analyzed statistically using the t-test for independent samples. […]"}}, "data": [{"substance": "sorbitan monooleate", "values": [{"measurement": "Action as absorption enhancer", "setting": "[1]", "value": "does not act as an absorption enhancer"}, {"measurement": "Action as absorption enhancer", "setting": "[2]", "value": "does not act as an absorption enhancer"}]}]}
